Target: T1, CIB1 and αIIb interaction (CIB1-GST : F-αIIb peptide) (Homo sapiens, UniProt Q99828)
T1 construct: made in house; host or cells: BL-21 plus RIL cells (E. coli)
T1 sequence (Q99828 1-191): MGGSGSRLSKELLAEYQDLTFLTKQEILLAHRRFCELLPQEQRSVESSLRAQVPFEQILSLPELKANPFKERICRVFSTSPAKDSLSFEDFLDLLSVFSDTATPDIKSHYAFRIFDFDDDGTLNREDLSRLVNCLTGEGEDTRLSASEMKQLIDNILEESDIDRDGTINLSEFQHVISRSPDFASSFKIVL
Assay: FP assay, 1536-well qHTS format (primary and confirmatory screen)
Assay type: binding
Details: Table S3, confirmatory screen, YES/NO call

Confirm? (confirmatory screen) | SMILES
YES | COc1ccccc1Nc1cc2ccccc2c(O)n1 [NCGC00183215-01]
YES | NC(=O)C1CCN(c2ncc(Br)s2)CC1 [NCGC00184919-01]

SMILES | Confirm? (confirmatory screen)
CC(=O)Nc1sc2c(c1-c1nc3ccccc3o1)CCN(C(C)C)C2.O=C(O)C(F)(F)F [NCGC00184832-01] | YES

Same assay, conditions: Table S3, confirmatory screen, qHTS curve class; a negative sign marks inhibitory curves

SMILES | Curve Class (confirmatory screen)
NC(=O)C1CCN(c2nc(-c3ccccc3N)cs2)CC1.O=C(O)C(F)(F)F [NCGC00183555-01] | 4
CC(=O)Nc1sc2c(c1-c1nc3ccccc3o1)CCN(C(C)C)C2.O=C(O)C(F)(F)F [NCGC00184832-01] | -1.2

Other lines, results leading:

Curve Class (confirmatory screen) | SMILES
4 | C/C(=C\c1ccc2c(c1)OCO2)C1Nc2cccc3cccc(c23)N1 [NCGC00182904-03]
-2.1 | COc1ccccc1Nc1cc2ccccc2c(O)n1 [NCGC00183215-01]
-2.1 | NC(=O)C1CCN(c2ncc(Br)s2)CC1 [NCGC00184919-01]

Same assay, conditions: Table S3, confirmatory screen; negative = inhibition

SMILES | Efficacy (%) (confirmatory screen)
NC(=O)C1CCN(c2nc(-c3ccccc3N)cs2)CC1.O=C(O)C(F)(F)F [NCGC00183555-01] | -21%
CC(=O)Nc1sc2c(c1-c1nc3ccccc3o1)CCN(C(C)C)C2.O=C(O)C(F)(F)F [NCGC00184832-01] | -47%

Other lines, results leading:

Efficacy (%) (confirmatory screen) | SMILES
-33% | C/C(=C\c1ccc2c(c1)OCO2)C1Nc2cccc3cccc(c23)N1 [NCGC00182904-03]
-92% | COc1ccccc1Nc1cc2ccccc2c(O)n1 [NCGC00183215-01]
-112% | NC(=O)C1CCN(c2ncc(Br)s2)CC1 [NCGC00184919-01]

Same assay, conditions: Table S3, confirmatory screen; read-out: IC50 [μM] (confirmatory screen)

IC50 | SMILES
39.8 µM | COc1ccccc1Nc1cc2ccccc2c(O)n1 [NCGC00183215-01]
50.1 µM | NC(=O)C1CCN(c2ncc(Br)s2)CC1 [NCGC00184919-01]

SMILES | IC50
CC(=O)Nc1sc2c(c1-c1nc3ccccc3o1)CCN(C(C)C)C2.O=C(O)C(F)(F)F [NCGC00184832-01] | 39.8 µM

Same assay, conditions: qHTS FP screen hits, Table S2; negative = inhibition

Efficacy (%) | SMILES
-123% | NC(=O)C1CCN(c2ncc(Br)s2)CC1 [NCGC00184919-01]

Same assay, conditions: qHTS FP screen hits, Table S2; one class per curve where COUNT > 1; negative sign = inhibitory curve

Curve Class | SMILES
-2.1 | NC(=O)C1CCN(c2ncc(Br)s2)CC1 [NCGC00184919-01]

Same assay, conditions: qHTS FP screen hits, Table S2; read-out: IC50

IC50 | SMILES
39.8 µM | NC(=O)C1CCN(c2ncc(Br)s2)CC1 [NCGC00184919-01]

Same assay, conditions: qHTS primary screen hits, Table S2; negative = inhibition

SMILES | Efficacy (%)
C/C(=C\c1ccc2c(c1)OCO2)C1Nc2cccc3cccc(c23)N1 [NCGC00182904-03] | -34%
COc1ccccc1Nc1cc2ccccc2c(O)n1 [NCGC00183215-01] | -67%
NC(=O)C1CCN(c2nc(-c3ccccc3N)cs2)CC1.O=C(O)C(F)(F)F [NCGC00183555-01] | -77%
CC(=O)Nc1sc2c(c1-c1nc3ccccc3o1)CCN(C(C)C)C2.O=C(O)C(F)(F)F [NCGC00184832-01] | -78%

Same assay, conditions: qHTS primary screen hits, Table S2; negative sign = inhibitory curve; several classes where COUNT > 1

SMILES | Curve Class
C/C(=C\c1ccc2c(c1)OCO2)C1Nc2cccc3cccc(c23)N1 [NCGC00182904-03] | -2.4
COc1ccccc1Nc1cc2ccccc2c(O)n1 [NCGC00183215-01] | -2.2
NC(=O)C1CCN(c2nc(-c3ccccc3N)cs2)CC1.O=C(O)C(F)(F)F [NCGC00183555-01] | -2.2
CC(=O)Nc1sc2c(c1-c1nc3ccccc3o1)CCN(C(C)C)C2.O=C(O)C(F)(F)F [NCGC00184832-01] | -2.2

Same assay, conditions: qHTS primary screen hits, Table S2; read-out: IC50

SMILES | IC50
C/C(=C\c1ccc2c(c1)OCO2)C1Nc2cccc3cccc(c23)N1 [NCGC00182904-03] | 35.5 µM
COc1ccccc1Nc1cc2ccccc2c(O)n1 [NCGC00183215-01] | 50.1 µM
NC(=O)C1CCN(c2nc(-c3ccccc3N)cs2)CC1.O=C(O)C(F)(F)F [NCGC00183555-01] | 39.8 µM
CC(=O)Nc1sc2c(c1-c1nc3ccccc3o1)CCN(C(C)C)C2.O=C(O)C(F)(F)F [NCGC00184832-01] | 50.1 µM

Target: T2, GST-CIB1 : F-scrambled peptide (Homo sapiens, UniProt Q99828)
T2 construct: made in house; host or cells: BL-21 plus RIL cells (E. coli)
T2 sequence (Q99828 1-191): T1 sequence (Q99828 1-191)
Assay: FP scrambled-peptide counter screen, 1536-well format
Assay type: binding
Details: Table S3, counterscreen, YES/NO call

SMILES | Confirm? (counterscreen)
C/C(=C\c1ccc2c(c1)OCO2)C1Nc2cccc3cccc(c23)N1 [NCGC00182904-03] | YES
NC(=O)C1CCN(c2nc(-c3ccccc3N)cs2)CC1.O=C(O)C(F)(F)F [NCGC00183555-01] | YES

Same assay, conditions: Table S3, counterscreen, qHTS curve class; a negative sign marks inhibitory curves

SMILES | Curve Class (counterscreen)
NC(=O)C1CCN(c2nc(-c3ccccc3N)cs2)CC1.O=C(O)C(F)(F)F [NCGC00183555-01] | -1.4
CC(=O)Nc1sc2c(c1-c1nc3ccccc3o1)CCN(C(C)C)C2.O=C(O)C(F)(F)F [NCGC00184832-01] | -2.2

The next lines start with the values.

Curve Class (counterscreen) | SMILES
-1.2 | C/C(=C\c1ccc2c(c1)OCO2)C1Nc2cccc3cccc(c23)N1 [NCGC00182904-03]
-2.1 | COc1ccccc1Nc1cc2ccccc2c(O)n1 [NCGC00183215-01]
-2.1 | NC(=O)C1CCN(c2ncc(Br)s2)CC1 [NCGC00184919-01]

Same assay, conditions: Table S3, counterscreen; negative = inhibition

SMILES | Efficacy (%) (counterscreen)
NC(=O)C1CCN(c2nc(-c3ccccc3N)cs2)CC1.O=C(O)C(F)(F)F [NCGC00183555-01] | -31%
CC(=O)Nc1sc2c(c1-c1nc3ccccc3o1)CCN(C(C)C)C2.O=C(O)C(F)(F)F [NCGC00184832-01] | -55%

Continued, values first:

Efficacy (%) (counterscreen) | SMILES
-77% | C/C(=C\c1ccc2c(c1)OCO2)C1Nc2cccc3cccc(c23)N1 [NCGC00182904-03]
-136% | COc1ccccc1Nc1cc2ccccc2c(O)n1 [NCGC00183215-01]
-127% | NC(=O)C1CCN(c2ncc(Br)s2)CC1 [NCGC00184919-01]

Same assay, conditions: Table S3, counterscreen; read-out: IC50 [μM] (counterscreen)

SMILES | IC50
NC(=O)C1CCN(c2nc(-c3ccccc3N)cs2)CC1.O=C(O)C(F)(F)F [NCGC00183555-01] | 28.2 µM
CC(=O)Nc1sc2c(c1-c1nc3ccccc3o1)CCN(C(C)C)C2.O=C(O)C(F)(F)F [NCGC00184832-01] | 50.1 µM

Continued, values first:

IC50 | SMILES
12.6 µM | C/C(=C\c1ccc2c(c1)OCO2)C1Nc2cccc3cccc(c23)N1 [NCGC00182904-03]
35.5 µM | COc1ccccc1Nc1cc2ccccc2c(O)n1 [NCGC00183215-01]
39.8 µM | NC(=O)C1CCN(c2ncc(Br)s2)CC1 [NCGC00184919-01]

From PMC11249646, “Small-Molecule Disruptors of the Interaction between Calcium- and Integrin-Binding Protein 1 and Integrin αIIbβ3 as Novel Antiplatelet Agents” (ACS Pharmacology & Translational Science, 2024)
